Experiments:
[1] = molecular target: Norepinephrine transporter (Rattus norvegicus, UniProt Q9WTR4); experiment: Affinity at norepinephrine transporter (NET) in rat striatum, using [3H]- nisoxatine as radioligand; type: tissue-based
[2] = molecular target: Monoamine transporters; serotonin & dopamine (Rattus norvegicus) (UniProt P31652+P23977); experiment: Selectivity for serotonin transporter compared to dopamine transporter.; type: protein assay
Rattus norvegicus = organism: Rattus norvegicus; experiment: Inhibition of dopamine reuptake ([3H]DA uptake) in […]; type: functional
[3] = molecular target: Sodium-dependent serotonin transporter (Rattus norvegicus, UniProt P31652); experiment: In vitro binding affinity at serotonin transporter in rat striatum by [3H]- citalopram displacement.; type: tissue-based
[4] = molecular target: Sodium-dependent dopamine transporter (Rattus norvegicus, UniProt P23977); experiment: In vitro binding affinity at dopamine transporter in rat striatum by [3H]WIN-35428 displacement.; type: tissue-based
[5] = molecular target: Sodium-dependent dopamine transporter (Rattus norvegicus) (UniProt P23977); experiment: Ratio of ([3H]-DA uptake) / [3H]WIN-35428 binding was determined in […]
Chain of Sodium-dependent dopamine transporter (Rattus norvegicus) (P23977 whole entry, looked up): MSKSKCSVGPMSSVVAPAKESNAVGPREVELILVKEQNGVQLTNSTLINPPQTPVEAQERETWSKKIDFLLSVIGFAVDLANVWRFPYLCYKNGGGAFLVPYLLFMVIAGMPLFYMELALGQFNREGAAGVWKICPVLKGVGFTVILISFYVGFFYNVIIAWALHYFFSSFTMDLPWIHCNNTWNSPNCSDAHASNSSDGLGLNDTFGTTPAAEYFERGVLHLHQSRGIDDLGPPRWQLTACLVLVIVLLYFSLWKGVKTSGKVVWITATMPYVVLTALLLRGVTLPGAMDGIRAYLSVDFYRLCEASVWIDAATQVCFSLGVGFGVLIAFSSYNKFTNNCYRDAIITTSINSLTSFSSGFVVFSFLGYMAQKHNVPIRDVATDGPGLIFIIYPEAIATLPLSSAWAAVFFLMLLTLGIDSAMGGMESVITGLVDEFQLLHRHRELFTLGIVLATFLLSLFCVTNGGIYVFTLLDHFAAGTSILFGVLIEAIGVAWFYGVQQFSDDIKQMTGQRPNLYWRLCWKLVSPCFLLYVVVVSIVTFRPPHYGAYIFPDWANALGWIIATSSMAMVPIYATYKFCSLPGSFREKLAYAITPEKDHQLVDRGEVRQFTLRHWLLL

Chain of Monoamine transporters; serotonin & dopamine (Rattus norvegicus) (P23977 whole entry, looked up): as above
Chain of Monoamine transporters; serotonin & dopamine (Rattus norvegicus) (P31652 whole entry, looked up): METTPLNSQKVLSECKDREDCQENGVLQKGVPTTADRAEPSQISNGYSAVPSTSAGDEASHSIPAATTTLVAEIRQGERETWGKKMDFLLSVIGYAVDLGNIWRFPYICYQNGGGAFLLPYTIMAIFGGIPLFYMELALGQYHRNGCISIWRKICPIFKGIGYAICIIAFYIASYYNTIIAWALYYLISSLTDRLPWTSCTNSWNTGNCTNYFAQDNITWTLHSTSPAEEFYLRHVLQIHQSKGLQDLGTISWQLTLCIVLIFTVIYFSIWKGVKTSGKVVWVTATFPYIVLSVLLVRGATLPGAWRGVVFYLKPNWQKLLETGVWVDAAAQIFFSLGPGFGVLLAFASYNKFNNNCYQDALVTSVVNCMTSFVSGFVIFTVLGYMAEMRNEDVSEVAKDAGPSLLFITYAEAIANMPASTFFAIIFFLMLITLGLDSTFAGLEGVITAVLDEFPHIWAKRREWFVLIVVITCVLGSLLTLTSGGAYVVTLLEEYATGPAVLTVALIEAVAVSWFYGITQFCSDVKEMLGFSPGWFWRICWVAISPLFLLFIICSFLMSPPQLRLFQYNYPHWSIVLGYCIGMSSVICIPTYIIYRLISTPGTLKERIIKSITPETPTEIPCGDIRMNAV
Chain of Norepinephrine transporter (Q9WTR4 whole entry): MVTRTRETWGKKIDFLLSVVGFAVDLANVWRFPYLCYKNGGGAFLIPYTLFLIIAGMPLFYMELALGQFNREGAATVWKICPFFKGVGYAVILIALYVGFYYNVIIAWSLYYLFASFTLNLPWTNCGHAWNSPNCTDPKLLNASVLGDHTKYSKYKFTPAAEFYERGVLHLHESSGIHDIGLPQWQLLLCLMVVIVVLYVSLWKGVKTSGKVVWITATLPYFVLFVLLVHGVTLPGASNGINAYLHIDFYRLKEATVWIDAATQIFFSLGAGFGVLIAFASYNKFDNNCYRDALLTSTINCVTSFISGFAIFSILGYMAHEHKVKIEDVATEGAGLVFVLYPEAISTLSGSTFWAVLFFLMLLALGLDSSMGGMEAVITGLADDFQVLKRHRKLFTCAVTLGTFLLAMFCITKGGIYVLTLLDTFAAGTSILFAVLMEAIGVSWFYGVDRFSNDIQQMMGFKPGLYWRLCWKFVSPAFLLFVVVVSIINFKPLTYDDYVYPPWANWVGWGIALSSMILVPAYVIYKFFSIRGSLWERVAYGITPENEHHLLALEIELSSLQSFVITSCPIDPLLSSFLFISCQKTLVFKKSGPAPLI
Chain of Sodium-dependent serotonin transporter (P31652 whole entry): as the sequence (P31652 whole entry, looked up) above
Chain of Sodium-dependent dopamine transporter (P23977 whole entry): as the sequence (P23977 whole entry, looked up) above

| SMILES | IC50 [1] | Ratio [2] | IC50 (Rattus norvegicus) | IC50 [3] | IC50 [4] | Ratio [5] |
| --- | --- | --- | --- | --- | --- | --- |
| Fc1ccc(CN2CCC(CCOC(c3ccccc3)c3ccccc3)CC2)cc1F | 921 nM | 122 | – | – | – | – |
| Fc1ccc(CN2CCC(CCOC(c3ccccc3)c3ccccc3)CC2)cc1 | – | 113 | 2.48 nM | – | – | – |
| CN(CCC1CCN(Cc2ccc(F)cc2)CC1)C(c1ccccc1)c1ccccc1 | – | 7.8 | – | 1.66 µM | 213 nM | – |
| Fc1ccc(C(NCC2CCN(CCc3ccccc3)CC2)c2ccc(F)cc2)cc1 | – | 17 | – | – | – | – |
| O=C(Cc1ccccc1)N1CCC(CCOC(c2ccccc2)c2ccccc2)CC1 | – | 6.1 | – | 13.2 µM | – | – |
| Fc1cccc(CN2CCC(CCOC(c3ccccc3)c3ccccc3)CC2)c1 | – | 49 | – | – | – | – |
| CC(NCCC1CCN(Cc2ccc(F)cc2)CC1)c1ccccc1 (centres undefined) | – | 3.2 | – | – | – | – |
| N#Cc1ccc(CN2CCC(CCOC(c3ccccc3)c3ccccc3)CC2)cc1 | 342 nM | 615 | 4.58 nM | – | – | – |
| FC(F)(F)c1ccc(CN2CCC(CCOC(c3ccccc3)c3ccccc3)CC2)cc1 | – | 71 | – | – | – | – |
| Fc1ccc(CN2CCC(CCNC(c3ccccc3)c3ccccc3)CC2)cc1F | 1030 nM | – | 10.7 nM | – | – | – |
| c1ccc(CN2CCC(CCNC(c3ccccc3)c3ccccc3)CC2)cc1 | 2620 nM | – | 20.6 nM | – | – | – |
| CS(=O)(=O)Nc1ccc(CN2CCC(CCOC(c3ccccc3)c3ccccc3)CC2)cc1 | – | 22 | 9.73 nM | – | – | 0.36 |
| CN(CC1CCN(Cc2ccc(F)cc2)CC1)CC(c1ccccc1)c1ccccc1 | – | 27 | – | – | – | – |
| Fc1ccc(CN2CCC(CNOC(c3ccccc3)c3ccccc3)CC2)cc1 | 691 nM | 19 | 16.6 nM | – | – | 0.48 |
| Fc1ccc(CN2CCC(CNCC(c3ccccc3)c3ccccc3)CC2)cc1 | 1100 nM | 7 | 49.6 nM | – | – | 2.5 |
| CC(OCCC1CCN(Cc2ccc(F)cc2)CC1)c1ccccc1 (centres undefined) | – | 7.8 | – | 5.86 µM | 751 nM | – |
| Fc1ccc(CN2CCC(CCNC(c3ccccc3)c3ccccc3)CC2)cc1 | 945 nM | 62 | 12 nM | – | – | 1.33 |

From ChEMBL document CHEMBL1134376, “Structure-activity relationship studies of 4-[2-(diphenylmethoxy)ethyl]-1-benzylpiperidine derivatives and their N-analogues: evaluation of O-and N-analogues and their binding to monoamine transporters” (J Med Chem, 2001)
